Test results reported in patent US7612201B2, “Pyrazole compounds” (Vernalis (Cambridge) Limited, priority 2002, dated 2009).

How the values were obtained:
human full-length HSP90 = target: T1, human full-length HSP90 (Homo sapiens, UniProt P08238); assay: Fluorescence polarization (FP) binding assay; conditions: FP assay (asterisk in table), activity range
T1 construct: E. coli expressed human full-length HSP90 protein; made in house; host or cells: E. coli
Text: Fluorescence Polarization Assay
Fluorescence polarization {also known as fluorescence anisotropy} measures the rotation of a fluorescing species in solution, where the larger molecule the more polarized the fluorescence emission. When the fluorophore is excited with polarized light, the emitted light is also polarized. The molecular size is proportional to the polarization of the fluorescence emission.
The fluoroscein-labelled probe—RBT0045864-FAM—
[drawing 121] binds to HSP90 {full-length human, full-length yeast or N-terminal domain HSP90} and the anisotropy {rotation of the probe:protein complex} is measured.
Test compound is added to the assay plate, left to equilibrate and the anisotropy measured again. Any change in anisotropy is due to competitive binding of compound to HSP90, thereby releasing probe.
Chemicals are of the highest purity commercially available and all aqueous solutions are made up in AR water. • 1) Costar 96-well black assay plate #3915 • 2) Assay buffer of (a)100 mM Tris pH7.4; (b) 20 mM KCl; (c) 6 mM MgCl2. Stored at room temperature. • 3) BSA (bovine serum albumen) 10 mg/ml (New England Biolabs # B9001S) • 4) 20 mM probe in 100% DMSO stock concentration. Stored in the dark at RT. Working concentration is 200 nM diluted in AR water and stored at 4° C. Final concentration in assay 80 nM. • 5) E. coli expressed human full-length HSP90 protein, purified >95% (see, e.g., Panaretou et al., 1998) and stored in 50 μL aliquots at −80° C.
Protocol • 1) Add 100 μl 1× buffer to wells 11 A and 12A (=FP BLNK) • 2) Prepare assay mix—all reagents are kept on ice with a lid on the bucket as the probe is light-sensitive.
• 3) Aliquot 100 μl assay mix to all other wells • 4) Seal plate and leave in dark at room temp for 20 minutes to equilibrate
Compound Dilution Plate—1×3 Dilution Series • 1) In a clear 96-well v-bottom plate—{# VWR 007/008/257} add 10 μl 100% DMSO to wells B1 to H11 • 2) To wells A1 to A11 add 17.5 μl 100% DMSO • 3) Add 2.5 μl cpd to A1. This gives 2.5 mM {50×} stock cpd—assuming cpds 20 mM. • 4) Repeat for wells A2 to A10. Control in columns 11 and 12. • 5) Transfer 5 μl from row A to row B—not column 12. Mix well. • 6) Transfer 5 μl from row B to row C. […] In column 11 {provides standard curve} only add compound B11-H11. Add 2 μl of 100 mM standard cpd to wells B12-H12 {is positive control } • 13)The Z′ factor is calculated from zero controls and positive wells. It typically gives a value of 0.7-0.9.
The compounds tested in the above assay were assigned to one of two activity ranges, namely A=<10 μM; B=>10 μM, and those assignments are reported above.

yeast HSP90 = target: T2, yeast HSP90 (Saccharomyces cerevisiae, UniProt P02829); assay: Malachite green ATPase assay; format: biochemical; conditions: activity range
T2 construct: made in house; host or cells: E. coli
T2 sequence (P02829 whole entry): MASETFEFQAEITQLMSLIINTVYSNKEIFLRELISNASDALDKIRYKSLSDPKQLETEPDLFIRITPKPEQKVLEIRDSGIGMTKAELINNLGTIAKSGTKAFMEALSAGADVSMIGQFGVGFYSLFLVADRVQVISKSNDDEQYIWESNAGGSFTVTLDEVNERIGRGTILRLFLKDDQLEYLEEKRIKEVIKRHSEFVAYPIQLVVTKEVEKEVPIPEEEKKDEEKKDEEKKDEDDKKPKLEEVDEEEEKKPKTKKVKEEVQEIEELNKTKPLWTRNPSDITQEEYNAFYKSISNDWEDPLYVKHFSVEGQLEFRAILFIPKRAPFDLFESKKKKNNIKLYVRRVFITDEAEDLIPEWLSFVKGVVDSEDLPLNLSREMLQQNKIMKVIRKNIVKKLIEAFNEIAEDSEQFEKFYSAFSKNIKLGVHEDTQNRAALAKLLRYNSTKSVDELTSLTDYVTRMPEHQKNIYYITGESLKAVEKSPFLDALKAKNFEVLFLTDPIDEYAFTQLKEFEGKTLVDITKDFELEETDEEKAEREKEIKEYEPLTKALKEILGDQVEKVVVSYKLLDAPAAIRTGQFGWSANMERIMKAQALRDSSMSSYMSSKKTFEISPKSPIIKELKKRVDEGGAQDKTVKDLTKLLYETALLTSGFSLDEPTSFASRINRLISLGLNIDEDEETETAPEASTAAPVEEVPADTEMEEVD
Text: The intrinsic ATPase activity of HSP90 may be measured using yeast HSP90 as a model system. The assay, based on the use of malachite green for the measurement of inorganic phosphate, was used to test the HSP90 inhibitory activity of the compounds of the Examples herein.
Malachite Green ATPase Assay
Chemicals are of the highest purity commercially available and all aqueous solutions are made up in AR water. Because of the need to minimise contamination with inorganic phosphate, precautions should be taken with solutions and apparatus used in the assays. Glassware and pH meters are rinsed with double distilled or deionised water before use and, wherever possible, plastic ware should be used. Gloves are worn for all procedures. • (1) Greiner 384-well (Greiner 781101) or Costar 384-well flat-bottomed polystyrene multiwell plates (VWR). • (2) Assay buffer of (a) 100 mM Tris-HCl, pH 7.4, (b) 150 mM KCl, (c) 6 mM MgCl2. Stored at room temperature. • (3) 0.0812% (w/v) malachite green (M 9636, Sigma Aldrich Ltd., Poole, UK). Stored at room temperature. • (4) 2.32% (w/v) polyvinyl alcohol USP (P 1097, Sigma Aldrich Ltd, Poole, UK) in boiling water (see Comment 1), allowed to cool, and stored at room temperature. • (5) 5.72% (w/v) ammonium molybdate in 6 M hydrochloric acid. Stored at room temperature. • (6) 34% (w/v) sodium citrate. Stored at room temperature. • (7) 100 mM ATP, disodium salt, special quality (47699, Sigma Aldrich). Stored at −20° C. • (8) E. coli expressed yeast HSP90 protein, purified >95% (see, e.g., Panaretou et al., 1998) and stored in 50 uL aliquots at −80° C.
Method • 1. Dilute test compounds to 500 μM in AR water (DMSO concentration will be 2.5%). Transfer 2.5 μl of these compounds directly from the daughter plate to the assay plate, giving a final assay concentration of 100 μM. To obtain 12 point IC50 values, perform serial dilutions 1:2 to produce a range of assay concentrations from 100 μM to 97.6 nM (2.5% DMSO), and transfer 2.5 μl of each concentration into the assay plate. Column 1 in the assay plate contains no compound, as a negative control. An additional row with no compound is also used as a background. • 2. Prepare ATP by diluting 100 mM stock to 925 μM with assay buffer, and aliquot 5 μl of diluted ATP to each well including controls (final assay concentration 370 μM). • 3. Add 5 μl of buffer to background row. • 4. Dilute enzyme preparation to 1.05 μM with assay buffer, and aliquot 5 μl into each compound well and to the negative control column. • 5. Collect the reagents to the bottom of the well, cover plate with plate seal and incubate overnight at 37 degC. • 6. First thing in the morning prepare the Malachite Green Reagent. Add 2 parts of Malachite Green Solution, 1 part of Polyvinyl Alcohol Solution, 1 part of Ammonium Molybdate Solution, and 2 parts of AR water. • 7. Invert to mix, and leave for approximately 1 hour until the colour turns from brown to golden yellow. • 8. Add 40 μl of Malachite Green Reagent to each well, allow 5 mins for colour to develop. • 9. Add 5 μl of Sodium Citrate Reagent to each well (see comment 2) • 10. Re-cover with plate seal and shake on plate shaker for at least 15 mins. • 11. Measure Absorbance at 620 nm using a suitable plate reader (e.g. Victor, Perkin Elmer Life Sciences, Milton Keynes, UK).
Comments • (1) The polyvinyl alcohol dissolves in boiling water with difficulty and stirring for 2-3 h is required. • (2) The time interval between addition of the malachite green reagent and the sodium citrate should be kept as short as possible in order to reduce the non-enzymatic hydrolysis of ATP. Once the sodium citrate is added, the colour is stable for up to 4 h at room temperature. • (3) Compounds can be added to the assay plates using a Biomek FX Robot (Beckman Coulter).

T1 sequence (P08238 whole entry): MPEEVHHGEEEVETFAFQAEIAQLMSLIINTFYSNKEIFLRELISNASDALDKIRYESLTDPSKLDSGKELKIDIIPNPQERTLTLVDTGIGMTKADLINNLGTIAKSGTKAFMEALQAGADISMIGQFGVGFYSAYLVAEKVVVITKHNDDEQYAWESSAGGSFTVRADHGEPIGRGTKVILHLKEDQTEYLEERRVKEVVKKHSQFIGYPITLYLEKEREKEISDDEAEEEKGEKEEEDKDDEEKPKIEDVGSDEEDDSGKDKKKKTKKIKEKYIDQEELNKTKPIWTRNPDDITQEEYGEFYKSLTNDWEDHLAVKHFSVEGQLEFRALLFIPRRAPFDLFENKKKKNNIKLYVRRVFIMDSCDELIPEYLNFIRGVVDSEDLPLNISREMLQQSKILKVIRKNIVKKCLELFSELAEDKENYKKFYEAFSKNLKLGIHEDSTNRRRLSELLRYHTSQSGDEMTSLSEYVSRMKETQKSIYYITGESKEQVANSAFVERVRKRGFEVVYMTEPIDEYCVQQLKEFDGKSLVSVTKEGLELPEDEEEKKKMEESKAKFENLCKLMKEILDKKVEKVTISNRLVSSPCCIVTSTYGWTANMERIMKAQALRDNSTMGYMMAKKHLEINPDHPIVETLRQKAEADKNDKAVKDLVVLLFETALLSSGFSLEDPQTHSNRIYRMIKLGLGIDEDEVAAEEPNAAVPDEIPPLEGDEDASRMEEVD

SMILES | IC50 (human full-length HSP90) | IC50 (yeast HSP90)
COc1ccc(CC(=O)N2CCN(c3c[nH]nc3-c3cc(Cl)c(O)cc3O)CC2)cc1 [Example 42] | > 10 µM | 
COCCN1CCN(c2c[nH]nc2-c2cc(Cl)c(O)cc2O)CC1 [Example 14] |  | < 50 µM
Oc1cc(O)c(-c2n[nH]cc2N2CCN(Cc3ncon3)CC2)cc1Cl [Example 17] |  | < 50 µM
COC(=O)c1ccc(CN2CCN(c3c[nH]nc3-c3cc(Cl)c(O)cc3O)CC2)cc1 [Example 21] |  | < 50 µM
CN1CCN(c2c[nH]nc2-c2cc(Cl)c(O)cc2O)CC1 [Example 4] |  | < 50 µM
O=C(CN1CCN(c2c[nH]nc2-c2cc(Cl)c(O)cc2O)CC1)N1CCOCC1 [Example 40] |  | < 50 µM
COC(=O)c1ccc(CN2CCN(c3c[nH]nc3-c3cc(Cl)c(O)cc3O)CC2)o1 [Example 15] |  | < 50 µM
NNC(=O)CN1CCN(c2c[nH]nc2-c2cc(Cl)c(O)cc2O)CC1 [Example 8, {4-[3-(5-Chloro-2,4-dihydroxy-phenyl)-1H-pyrazol-4-yl]-piperazin-1-yl}-acetic acid hydrazide] |  | > 50 µM
N#CCCCN1CCN(c2c[nH]nc2-c2cc(Cl)c(O)cc2O)CC1 [Example 13] |  | < 50 µM
O=C(O)c1ccc(CN2CCN(c3c[nH]nc3-c3cc(Cl)c(O)cc3O)CC2)o1 [Example 28] |  | < 50 µM
COC(=O)c1ccc(C(=O)N2CCN(c3c[nH]nc3-c3cc(Cl)c(O)cc3O)CC2)cc1 [Example 32] |  | > 50 µM
Cn1c(CN2CCN(c3c[nH]nc3-c3cc(Cl)c(O)cc3O)CC2)nc2ccccc21 [Example 33] |  | > 50 µM
C#CC[N+]1(CC#C)CCN(c2c[nH]nc2-c2cc(Cl)c(O)cc2O)CC1 [Example 27] |  | < 50 µM
CC(C)(C)OC(=O)CN1CCN(c2c[nH]nc2-c2cc(Cl)c(O)cc2O)CC1 [Example 41] |  | > 50 µM
Oc1cc(O)c(-c2n[nH]cc2N2CCN(Cc3ccc(-c4cnns4)cc3)CC2)cc1Cl [Example 38] |  | < 50 µM
Oc1cc(O)c(-c2n[nH]cc2N2CCOCC2)cc1Cl [Example 3] |  | > 50 µM
OCCN1CCN(c2c[nH]nc2-c2cc(Cl)c(O)cc2O)CC1 [Example 9, 4-Chloro-6-{4-[4-(2-hydroxy-ethyl)-piperazin-1-yl]-1H-pyrazol-3-yl}-benzene-1,3-diol] |  | > 50 µM
NC(=O)CN1CCN(c2c[nH]nc2-c2cc(Cl)c(O)cc2O)CC1 [Example 20] |  | < 50 µM
NC(=O)c1ccc(CN2CCN(c3c[nH]nc3-c3cc(Cl)c(O)cc3O)CC2)cc1 [Example 36] |  | < 50 µM

Now from value to compound:

IC50 (human full-length HSP90) | IC50 (yeast HSP90) | SMILES
< 10 µM |  | CCOC(=O)CN1CCN(c2c[nH]nc2-c2cc(Cl)c(O)cc2O)CC1 [Example 45]
< 10 µM |  | O=C(O)CN1CCN(c2c[nH]nc2-c2cc(Cl)c(O)cc2O)CC1 [Example 46]
< 10 µM |  | CC(=O)c1ccc(CN2CCN(c3c[nH]nc3-c3cc(Cl)c(O)cc3O)CC2)cc1 [Example 47]
 | < 50 µM | COc1ccc(CNC2CCN(c3c[nH]nc3-c3cc(Br)c(O)cc3O)CC2)cc1 [Example 81]
 | > 50 µM | Oc1cc(O)c(-c2n[nH]cc2N2CCNCC2)cc1Br [Example 55]
 | < 50 µM | O=[N+]([O-])c1ccc(CNC2CCN(c3c[nH]nc3-c3cc(Br)c(O)cc3O)CC2)cc1 [Example 84]
 | < 50 µM | Oc1cc(O)c(-c2n[nH]cc2N2CCC(NCc3ccc(F)cc3)CC2)cc1Br [Example 80]
 | > 50 µM | Oc1cc(O)c(-c2nn(Cc3ccccc3)cc2N2CCNCC2)cc1Br [Example 63]
 | < 50 µM | Oc1cc(O)c(-c2n[nH]cc2N2CCC(NCc3ccccc3)CC2)cc1Br [Example 79]
 | < 50 µM | Oc1cc(O)c(-c2n[nH]cc2N2CCNCC2)cc1CCc1ccccc1F [Example 68]
 | < 50 µM | COc1ccc(OC)c(CCc2cc(-c3n[nH]cc3N3CCNCC3)c(O)cc2O)c1 [Example 67]
 | > 50 µM | CC(C)n1ncc(N2CCNCC2)c1-c1cc(Br)c(O)cc1O [Example 60]
 | < 50 µM | CCNC1CCN(c2c[nH]nc2-c2cc(Br)c(O)cc2O)CC1 [Example 97]
 | < 50 µM | CCNC(=O)c1[nH]nc(-c2cc(Cl)c(O)cc2O)c1N1CCNCC1 [Example 51, 5-(5-Chloro-2,4-dihydroxy-phenyl)-4-piperazin-1-yl-2H-pyrazole-3-carboxylic acid ethylamide]
 | < 50 µM | Cc1cccc(CCc2cc(-c3n[nH]cc3N3CCNCC3)c(O)cc2O)c1 [Example 71]
 | < 50 µM | Cc1ccc(CCc2cc(-c3n[nH]cc3N3CCNCC3)c(O)cc2O)c(C)c1 [Example 73]
 | > 50 µM | CCn1cc(N2CCNCC2)c(-c2cc(Br)c(O)cc2O)n1 [Example 59]
 | < 50 µM | Oc1cc(O)c(-c2n[nH]cc2N2CCNCC2)cc1CCc1ccc2c(c1)OCO2 [Example 65]
 | < 50 µM | Cc1ccc(CCc2cc(-c3n[nH]cc3N3CCNCC3)c(O)cc2O)cc1 [Example 72]
 | < 50 µM | Oc1cc(O)c(-c2n[nH]cc2N2CCC(NCc3ccc(Cl)cc3)CC2)cc1Br [Example 82]
 | < 50 µM | CC(c1ccccc1)N1CCN(c2c[nH]nc2-c2cc(Cl)c(O)cc2O)CC1 (centres unmarked) [Example 43]
 | > 50 µM | Cn1cc(N2CCNCC2)c(-c2cc(Br)c(O)cc2O)n1 [Example 57]
 | < 50 µM | Oc1cc(O)c(-c2n[nH]cc2N2CCNCC2)cc1CCc1ccc(F)cc1 [Example 70]
 | > 50 µM | Cn1ncc(N2CCNCC2)c1-c1cc(Br)c(O)cc1O [Example 56]
 | < 50 µM | NS(=O)(=O)c1ccc(CNC2CCN(c3c[nH]nc3-c3cc(Br)c(O)cc3O)CC2)cc1 [Example 86]
